Assay [1] concerns HepG2 (human hepatocellular carcinoma). Kind of assay: Alamar blue cytotoxicity assay, HepG2. Type of assay: cell-based. The conditions noted are these: 72 h incubation. Here is the method:
(§1) The in vitro cytotoxic activity of the compounds (Table 1) was evaluated against cancer cell lines HCT116 (human colon carcinoma), HepG2 (human hepatocellular carcinoma), B16F10 (murine melanoma carcinoma) and non-cancerous cell line MRC-5 (human lung fibroblast) using the Alamar blue assay after 72 h of incubation; doxorubicin (DOX) was used as a positive control. The unsubstituted derivatives on the acridine cores were encoded as CL, and the disubstituted derivatives as DL.
(§2) The human cancer cell lines HCT116 (colon carcinoma) and HepG2 (hepatocellular carcinoma), the mouse cancer cell line B16-F10 (melanoma), and the non-cancerous human cell line MRC-5 (lung fibroblast) were obtained from the American Type Culture Collection (ATCC, Manassas, VA, USA) and cultured according to the ATCC animal cell culture guide. All cell lines tested negative for mycoplasma using a mycoplasma stain kit.
(§3) Cell viability was measured using the Alamar blue assay, as previously described. Cells were seeded in 96-well plates for all experiments. The compounds were dissolved in dimethyl sulfoxide (DMSO, Sigma-Aldrich) and added to each well in eight serial concentrations ranging from 0.19 to 25 μg/mL. As a positive control, doxorubicin was used. After 72 h of treatment, 20 μL of resazurin (0.312 mg/mL) was added to each well. A SpectraMax 190 Micro-plate Reader was used to measure absorbances at 570 and 595 nm (Molecular Devices, Sunnyvale, CA, USA). Nonlinear regression with 95% confidence intervals (CI 95%) was used to calculate the inhibitory concentration of 50% (IC50) using GraphPad Prism software (Intuitive Software for Science; San Diego, CA, USA).
In general terms: Alamar Blue is a resazurin reagent that responds to reducing activity.

The subject of the next assay is K-562 cells. Put plainly: MTT cytotoxicity assay on leukemic cells, K562. Type of assay: cell-based. The conditions noted are these: Homo sapiens. How it is done:
(§4) K562 (human erythroleukemic) and its multidrug-resistant counterpart, K562-Lucena 1, were obtained from the Tumor Immunology Laboratory (Federal University of Rio de Janeiro) (Rumjanek et al., 2001) and were cultured as recommended by Daflon-Yunes et al., 2013 [93, 106, 107].
(§5) CL-07, DL-01 and DL-08 compounds were evaluated for cell viability on K562 and K562-Lucena 1 cells using the colorimetric tetrazolium method (Mosmann, 1983). Cells were plated in 96-well plates. Compounds were dissolved in 1% (v/v) DMSO and RPMI-1640 medium (Sigma-Aldrich) in five serial concentrations from 1 to 50 µg/mL and were later added to each well and incubated for 72 h at 37 °C in a 5% CO2 humidified environment. As a positive control, 1 µM staurosporine was used. Then, the cells were treated with 20 µL of 5 mg/mL 3-(4,5-dimethylthiazol-2yl)-2,5-diphenyltetrazolium bromide solution (MTT solution in phosphate buffer solution) for 3 h. At the end of treatment, absorbances at 562 nm were measured using an iMark™ Microplate Absorbance Reader (iMark™, Hercules, CA, USA). Half-inhibitory concentration (IC50) was obtained by nonlinear regression with 95% confidence intervals (CI 95%) using GraphPad Prism software (Intuitive Software for Science; San Diego, CA, USA).

Assay [2] has as its system HCT116 (human colon carcinoma). Kind of assay: Alamar blue cytotoxicity assay, HCT116. The assay is classed as cell-based. The settings on record: HCT-116, 72 h incubation. How it is done:
as §1, §2, §3

Assay [3] concerns the target T1, recombinant human topoisomerase IIα (p170) (Homo sapiens, UniProt P11388).
T1 construct: purchased Sigma-Aldrich
Kind of assay: Human topoisomerase IIα inhibition assay (pUC19 plasmid relaxation). Type of assay: biochemical. The settings on record: for inhibition of Topo IIα enzymatic activity (in words) / % of enzyme inhibition: 100 µM; for % of enzyme inhibition / inhibition at 100 µM: densitometry, relative to positive control mAMSA, '-' = no inhibition; for inhibition at 100 µM: read-out: % of enzyme inhibition. The source says:
Several studies have shown the ability of acridines to inhibit topoisomerases, being considered the main mechanism responsible for the antiproliferative activities of this scaffold. The possibility of the new acridine derivatives to inhibit Topo IIα in its biological function of DNA double-strand relaxation was investigated in this work. This enzymatic inhibition can be accompanied by the presence of a supercoiled or relaxed DNA band, performed with the pUC19 plasmid, as shown in Figure 2. In this study, mAMSA was used as a positive inhibition control.
For testing the ability of Topo IIα inhibition, the compounds were evaluated in the DNA plasmid relaxation assay. This test consists of evaluating the Topo IIα enzyme activity in the absence and presence of the compound, followed by electrophoresis analysis, as previously described by Almeida et al. (2016). Briefly, 100 ng pUC19 DNA plasmid (Sigma-Aldrich) and 4.0 units of recombinant human (p170) topoisomerase II (Sigma-Aldrich) in relaxation buffer without or with tested compounds were incubated for 30 min at 37 °C. The tested concentrations were […], and amsacrine (mAMSA) was used as a positive control. Reactions were terminated with 1% SDS and digested with proteinase K. Then, the reaction products were analyzed by electrophoresis gel stained with ethidium bromide and photographed under UV light. Quantitative evaluation (% of enzyme inhibition by compounds about the positive control mAMSA) of the gel bands corresponding to supercoiled DNA was performed by densitometry using image-processing software (Scion Image, version Beta 4.0.2.) according to Gouveia et al. (2018).
Figure 2 Effects of mAMSA and its acridine derivatives on topoisomerase IIα activity. Effects of derivatives and positive control on the inhibition of human topoisomerase IIα. Native supercoiled pUC19 was incubated for 30 min at 37 °C with […] of human Topo IIα in the absence (lane 2) or presence of ligands at a concentration 100 μM. Inhibition of Topo IIα-induced DNA relaxation by mAMSA (lane 3) was used as a positive control. DNA samples were run on an agarose gel followed by ethidium bromide staining.

Assay [4] deals with B16-F10 (murine melanoma). Put plainly: Alamar blue cytotoxicity assay, B16-F10. Type of assay: cell-based. The conditions noted are these: Mus musculus, 72 h incubation. How it is done: as §1, §2, §3
The subject of assay [5] is MRC-5 (human lung fibroblast). Put plainly: Alamar blue cytotoxicity assay, non-cancerous MRC-5. Type of assay: cell-based. The settings on record: MRC5, 72 h incubation, non-cancerous cell. How it is done: as §1, §2, §3
A further assay relates to K562-Lucena 1. Kind of assay: MTT cytotoxicity assay on resistant leukemic cells, K562-Lucena 1. The assay is classed as cell-based, human. The conditions noted are these: for IC50: Homo sapiens, K562-Lucena 1, MTT, 72 h, multidrug-resistant. Here is the method:
as §4, §5

Setting [6] is: MTT, 72 h, read-out: IC50 K-562.
The mark [7] stands for this setting: range over both cell lines and both compounds, read-out: IC50 on leukemic cells (K-562 and K-562 Lucena 1).

Each structure is given as a SMILES string. “Also recorded” adds a separate entry of the source. Where two headings read alike, the source gives them in different places.

T1 sequence (P11388 whole entry): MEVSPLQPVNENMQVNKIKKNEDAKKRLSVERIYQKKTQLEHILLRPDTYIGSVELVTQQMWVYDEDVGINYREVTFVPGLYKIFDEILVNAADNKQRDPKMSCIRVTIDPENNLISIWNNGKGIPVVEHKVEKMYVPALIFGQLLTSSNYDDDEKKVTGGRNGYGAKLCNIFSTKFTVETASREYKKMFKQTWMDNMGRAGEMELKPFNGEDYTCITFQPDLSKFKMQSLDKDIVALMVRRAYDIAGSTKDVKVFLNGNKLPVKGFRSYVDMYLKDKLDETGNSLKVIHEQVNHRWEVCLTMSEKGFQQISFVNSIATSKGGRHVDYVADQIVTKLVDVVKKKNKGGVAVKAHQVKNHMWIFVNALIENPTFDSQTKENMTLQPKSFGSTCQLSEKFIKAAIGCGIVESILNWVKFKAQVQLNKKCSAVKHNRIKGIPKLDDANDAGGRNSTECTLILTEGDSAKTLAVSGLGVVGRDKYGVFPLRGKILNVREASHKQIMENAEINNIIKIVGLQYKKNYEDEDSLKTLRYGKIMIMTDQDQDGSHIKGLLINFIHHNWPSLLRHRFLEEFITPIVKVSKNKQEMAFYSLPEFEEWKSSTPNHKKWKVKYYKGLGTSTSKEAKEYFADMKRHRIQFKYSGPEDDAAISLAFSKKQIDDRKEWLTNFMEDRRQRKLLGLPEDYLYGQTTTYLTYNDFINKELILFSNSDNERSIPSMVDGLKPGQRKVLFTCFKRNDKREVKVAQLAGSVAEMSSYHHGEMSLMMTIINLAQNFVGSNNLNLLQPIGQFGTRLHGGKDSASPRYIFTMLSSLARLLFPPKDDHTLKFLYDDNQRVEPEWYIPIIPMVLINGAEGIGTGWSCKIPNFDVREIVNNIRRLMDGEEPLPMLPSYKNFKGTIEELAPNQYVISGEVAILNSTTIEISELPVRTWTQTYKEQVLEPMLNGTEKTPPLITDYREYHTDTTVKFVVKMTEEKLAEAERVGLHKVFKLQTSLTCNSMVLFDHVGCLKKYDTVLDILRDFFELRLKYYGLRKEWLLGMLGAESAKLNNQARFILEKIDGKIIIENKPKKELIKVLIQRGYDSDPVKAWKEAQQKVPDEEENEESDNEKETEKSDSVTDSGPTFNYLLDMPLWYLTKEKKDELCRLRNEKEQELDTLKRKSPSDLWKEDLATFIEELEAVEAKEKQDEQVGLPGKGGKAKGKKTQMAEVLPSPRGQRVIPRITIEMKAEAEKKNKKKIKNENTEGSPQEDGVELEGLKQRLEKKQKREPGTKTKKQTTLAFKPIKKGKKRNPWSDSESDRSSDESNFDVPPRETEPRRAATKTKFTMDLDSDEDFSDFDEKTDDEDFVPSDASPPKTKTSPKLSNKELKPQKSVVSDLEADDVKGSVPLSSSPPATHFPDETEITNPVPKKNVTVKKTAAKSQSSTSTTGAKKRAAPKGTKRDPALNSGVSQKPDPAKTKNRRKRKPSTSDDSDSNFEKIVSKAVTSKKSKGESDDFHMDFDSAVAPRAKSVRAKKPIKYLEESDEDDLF

As a reminder, the IC50 is the concentration needed to halve the response being measured. One may read the inhibition as the share of the control response that was lost under treatment. Regarding `COc1ccc2nc3cc(Cl)ccc3c(NC(=S)N/N=C/c3cccc(O)c3)c2c1` [DL-08, (E)-N-(6-chloro-2-methoxyacridin-9-yl)-2-(3-hydroxybenzylidene)hydrazine-1-carbothioamide], the IC50 is 21.3 µM in assay [1]; 17.3 µM in the assay with K-562 cells (setting [6]); 11.5 to 17.3 µM in the assay with K-562 cells (setting [7]); 24.2 µM in assay [2]; 14.8 µM in assay [4]; 14.4 µM in assay [5]. In addition, it took 17.1 µM to reach half-maximal inhibition in the assay with K562-Lucena 1 (IC50). In addition, the “inhibition of Topo IIα enzymatic activity (in words)” value (from here on “inhibition … (in words)”) in assay [3] is “able to inhibit the enzymatic activity”. Besides, in assay [3], the “% of enzyme inhibition” value is 79%. Moreover, in assay [3], the inhibition at 100 µM is more than 74%.
For the molecule `COc1ccc2nc3cc(Cl)ccc3c(NC(=S)N/N=C/c3ccccc3)c2c1` [DL-01, (E)-2-benzylidene-N-(6-chloro-2-methoxyacridin-9-yl)hydrazine-1-carbothioamide], the half-inhibitory concentration (IC50) in assay [1] was 21.9 µM; in the assay with K-562 cells (setting [6]), 11.5 µM; in the assay on K-562 cells (setting [7]), 11.5 to 17.3 µM; in assay [2], more than 60 µM; in assay [4], 39.6 µM; in assay [5] it was 37 µM. This molecule returned an IC50 in the assay on K562-Lucena 1 of 16.5 µM. Besides, the “inhibition … (in words)” value in assay [3] is given as “able to inhibit the enzymatic activity”. Moreover, the “% of enzyme inhibition” value in assay [3] was 77%. Moreover, the inhibition at 100 µM in assay [3] was more than 74%. Besides, the “selectivity K562-Lucena 1 versus MRC-5” value in the assay with K562-Lucena 1 (more selective than MRC-5) was 2 times.
On to `Oc1ccc(/C=N/NC(=S)Nc2c3ccccc3nc3ccccc23)cc1` [CL-07, (E)-N-(acridin-9-yl)-2-(4-hydroxybenzylidene)hydrazine-1-carbothioamide], for which the IC50 in assay [1] amounted to 50.7 µM; in the assay with K-562 cells (setting [6]), 45.5 µM; in assay [2], 39.7 µM; in assay [4], 19.8 µM; in assay [5], 43.4 µM; in the assay on K562-Lucena 1, 43.4 µM. Also, in assay [3], the “inhibition … (in words)” value is listed as “did not show inhibition capacity; also recorded: could not inhibit Topo IIα”.

The values above are taken from publication PMC9506480, “Synthesis and Evaluation of Antiproliferative Activity, Topoisomerase IIα Inhibition, DNA Binding and Non-Clinical Toxicity of New Acridine–Thiosemicarbazone Derivatives” (Pharmaceuticals, 2022).
